Assay results published in patent EP4740947A1, “PHARMACEUTICAL COMBINATION OF EGFR KINASE INHIBITOR AND C-MET KINASE INHIBITOR FOR TREATING TUMOR DISEASES” (Jiangsu AoSaiKang Pharmaceutical Co., Ltd., priority 2023, dated 2025).
Several values for one entry are separate records, joined by “and”; a condition that tells them apart may be missing. Identical values can stand only once.

How the values were obtained:
[1] = Body weight change and tolerance of tumor-bearing mice in the LD1-0025-200662 PDX model; type: in vivo; conditions: for Rate of weight change (%) Day 21: Day 21 vs Day 0
Protocol: (§1) Immunodeficient mice were subcutaneously inoculated with LD1-0025-200662 tumor tissue, and observed continuously till tumor formation. When the tumor volume reached about 1000 mm^3, the tumor tissue was peeled off and cut into tumor tissue with a size of about 3 mm × 3 mm × 3 mm (about 50-90 mg), and inoculated subcutaneously in NU/NU mice. The inoculated mice were observed and the growth of tumor was monitored. When the average tumor volume of tumor-bearing mice reached 193.40 mm^3, the mice were randomly divided into groups, administered and observed. The tumor volume and weight of all tumor-bearing mice were measured before grouping, and the tumor-bearing mice were randomly grouped according to the measured tumor volume. According to the principle of random block design, the mice were first divided into blocks according to the tumor volume, and then the mice in each block were randomly assigned to each treatment group. Table 9. Administration and treatment
During the whole experiment, the use and observation of test animals were carried out in accordance with the relevant regulations of Guide for the Care and Use of Laboratory Animals of AAALAC. After the test animals were inoculated with the tumor tissue, they were observed every day and the disease attack and death were recorded. During the routine experiment, all the test animals were monitored and recorded for behavior, food intake, water intake, weight change, hair luster and other abnormal conditions.
5.6 The weight of tumor-bearing mice was measured twice a week, and the change rate of weight gain of mice after administration was calculated: RCBW(%) = (BWi - BW0) / BW0 × 100, where BWi was the average weight at a certain measurement after administration, and BW0 was the average weight at the first administration.

[2] = test system: LD1-0025-200662 human lung cancer tissue; test: Efficacy study in patient derived xenograft (PDX) tumor model established with LD1-0025-200662 human lung cancer tissue; type: in vivo, NU/NU mice; conditions: for Complete tumor regression (%): rate of mice, observed by naked eyes on day 21; for T/C% Day 21: relative tumor proliferation rate; for T/C (%) (tumor weight): tumor weight vs vehicle
Protocol: NU/NU mice were subcutaneously inoculated with human lung cancer tissue LD1-0025-200662 to establish an in-vivo xenograft tumor model, and then the efficacy of the test drugs ASK-MET alone, ASK-EGFR alone, ASK-MET+ASK-EGFR in combination and RefT+ ASK-EGFR in combination in the model were evaluated.
LD1-0025-200662 (see Table 8), a patient derived human lung cancer tissue, was sub-cultured to FP3+3 passages for this efficacy test. Table 8. Xenograft tumor model
NU/NU mice, female, age: 42-62 days, weight: 18-22 g, purchased from Zhejiang Vital River Laboratory Animal Technology Co., Ltd. (Production license: SCXK(Zhe)2019-0001).
• Vehicle: 20% solutol/80% 100 mM sodium acetate buffer pH 5.5; • ASK-MET: hydrochloride of the compound of Formula (II), prepared with 20% solutol/80% 100 mM sodium acetate buffer pH 5.5, concentration: 0.1 mg/mL, 0.3 mg/mL; • ASK-EGFR: compound of Formula (I), prepared with 0.5% sodium carboxymethyl cellulose solution (0.5%CMC-Na), concentration: 2 mg/mL; • RefT: prepared with 20% solutol/80% 100 mM sodium acetate buffer pH 5.5, concentration: 0.3 mg/mL; RefT is a small-molecule MET kinase inhibitor approved by USFDA.
as §1
5.1 Measurement of tumor volume and weight of tumor-bearing mice: The measurement was made twice a week by using a vernier caliper, and the tumor volume was calculated by a formula V = 0.5 × a × b^2, where a and b were respectively the major and minor diameters of the tumor.
5.2 Tumor growth inhibition TGI (%)= [1-(Ti-T0) / (Vi-V0)] × 100, where Ti-T0>0; TGI (%) = [1-(Ti-T0)/ T0] × 100, where Ti-T0<0. T0 was the average tumor volume at the first administration in the treatment group, Ti was the average tumor volume at a certain measurement after administration in the treatment group, V0 was the average tumor volume at the first administration in the vehicle control group, and Vi was the average tumor volume at a certain measurement after administration in the vehicle control group.
5.3 Relative tumor proliferation rate T/C (%): The calculation formula is as follows: T/C % = TRTV / CRTV × 100 % (TRTV: RTV of the treatment group; CRTV: RTV of the negative control group). According to the results of tumor measurement, the relative tumor volume (RTV) was calculated by a formula RTV = Vt / V0, where V0 was the average tumor volume measured at the time of grouping for administration (that is, d0), Vt was the average tumor volume measured at a certain measurement, and TRTV and CRTV data of the same day was used.
5.4 Synergistic effect in combined treatment group: Jin's formula Q=E(a+b)/[Ea+Eb-Ea × Eb], where Ea was TGI of a drug alone, and Q value>1 reflected that drug combination has a synergistic effect.
5.5 After the experiment, the tumor was stripped, weighed and photographed. T/Cweight%= Tweight /Vweight × 100%, where Tweight was the average tumor weight of the compound group at the end of the experiment, and Vweight was the average tumor weight of the vehicle control group at the end of the experiment.
All data is expressed as Mean±SEM. […]

[3] = Body weight monitoring and daily observation in the NCI-H1975-HGF xenograft model; type: in vivo
Protocol: 4) After inoculation, the tumor volume and weight were measured twice a week. When the average tumor volume reached about 100 mm^3, the animals were randomly divided into 4 groups according to the tumor volume and weight, each group having 3 animals. The animals were immediately administered after grouping. The day of administration was regarded as day 0. Table 3. Grouping and administration information
After inoculation, the disease attack and death of animals were observed every working day. Daily observation includes tumor growth and the effects of drugs on test animals, such as changes in activity, changes in food and water intake, weight loss, appearance changes in hair and eyes, death and other clinical symptoms.
After inoculation and before grouping, the weight of test animals was measured once a week. After grouping, the weight of the test animals was measured twice a week.

[4] = ASK-EGFR 20 mg/kg p.o. QD×21 (G2)
[5] = Day 21, ASK-EGFR 20 mg/kg p.o. QD×21 (G2)
[6] = ASK-MET 1 mg/kg p.o. QD×(D0-D7) (G3)
[7] = ASK-MET 3 mg/kg p.o. QD×(D0-D7) (G4)
[8] = Day 21, ASK-MET 1 mg/kg p.o. QD×(D0-D7) (G3)
[9] = Day 21, ASK-MET 3 mg/kg p.o. QD×(D0-D7) (G4)

C=CC(=O)Nc1cc(Nc2ncc(Cl)c(Nc3ccc4ccccc4c3)n2)c(OC)cc1N(C)CCN(C)C [ASK-EGFR, N-((5-((5-chloro-4-((naphthalen-2-yl)amino))pyrimidin-2-yl)amino)-2-((N-methyl-N-dimethylaminoethyl)amino)-4-methoxyphenyl) acrylamide]
Average weight (g) (Mean ± SEM) Day 0 [1, 4]: 23.24 ± 0.47 g | Average weight (g) (Mean ± SEM) Day 21 [1, 4]: 24.75 ± 0.64 g | Rate of weight change (%) Day 21 [1, 4]: 6.45±1.28% | Tumor volume (mm^3) (Mean ± SEM) Day 0 [2, 4]: 169.31±14.43 mm^3 | Tumor volume (mm^3) (Mean ± SEM) Day 21 [2, 5]: 1239.58±146.6 mm^3 | Tumor weight (g) (Mean ± SEM) Day 21 after treatment [2, 5]: 1.19 ± 0.16 g | TGI% Day 21 ([2]; Day 21 vs vehicle, ASK-EGFR 20 mg/kg p.o. QD×21 (G2)): 1.96% | Complete tumor regression (%) [2, 4]: 0.00% and 0 (0/8) % | T/C% Day 21 [2, 5]: 98.77% | T/C (%) (tumor weight) [2, 5]: 93.41% | Weight ([3]; Day 0, ASK-EGFR 20 mg/kg p.o. QD×15 (G4)): 22.0 ± 0.1 g | Weight ([3]; Day 2, ASK-EGFR 20 mg/kg p.o. QD×15 (G4)): 21.9 ± 0.2 g | Weight ([3]; Day 5, ASK-EGFR 20 mg/kg p.o. QD×15 (G4)): 22.1 ± 0.1 g | Weight ([3]; Day 8, ASK-EGFR 20 mg/kg p.o. QD×15 (G4)): 21.1 ± 0.3 g | Weight ([3]; Day 12, ASK-EGFR 20 mg/kg p.o. QD×15 (G4)): 21.5 ± 0.6 g | Weight ([3]; Day 15, ASK-EGFR 20 mg/kg p.o. QD×15 (G4)): 21.0 ± 0.5 g

CC(C)(O)CN1CCC(COc2cnc(-c3cccc(Cn4c(=O)ccn5c6cc(C#N)ccc6nc45)c3)nc2)CC1 [ASK-MET]
Average weight (g) (Mean ± SEM) Day 0 [1, 6]: 24.08 ± 0.53 g | Average weight (g) (Mean ± SEM) Day 0 [1, 7]: 24.02 ± 0.37 g | Average weight (g) (Mean ± SEM) Day 21 [1, 6]: 25.24 ± 0.50 g | Average weight (g) (Mean ± SEM) Day 21 [1, 7]: 25.03 ± 0.45 g | Rate of weight change (%) Day 21 [1, 6]: 4.88±0.71% | Rate of weight change (%) Day 21 [1, 7]: 4.19±1.08% | complete tumor regression of tumor-bearing mice (in words) ([2]; ASK-MET 1 mg/kg (G3)): varying degrees of complete tumor regression | inhibition on the growth of subcutaneous xenograft tumor ([2]; ASK-MET 1 mg/kg (G3)): statistically significant inhibition | complete tumor regression of tumor-bearing mice (in words) ([2]; ASK-MET 3 mg/kg (G4)): varying degrees of complete tumor regression | inhibition on the growth of subcutaneous xenograft tumor ([2]; ASK-MET 3 mg/kg (G4)): statistically significant inhibition | Tumor volume (mm^3) (Mean ± SEM) Day 0 [2, 6]: 168.78±15.38 mm^3 | Tumor volume (mm^3) (Mean ± SEM) Day 0 [2, 7]: 170.65±12.40 mm^3 | Tumor volume (mm^3) (Mean ± SEM) Day 21 [2, 8]: 116.01±35.11 mm^3 | Tumor weight (g) (Mean ± SEM) Day 21 after treatment [2, 8]: 0.12 ± 0.04 g | TGI% Day 21 ([2]; Day 21, ASK-MET 1 mg/kg p.o. QD×(D0-D7) (G3), above 100 = regression by formula of b100): 131.27% | Tumor volume (mm^3) (Mean ± SEM) Day 21 [2, 9]: 3.54±2.35 mm^3 | Tumor weight (g) (Mean ± SEM) Day 21 after treatment [2, 9]: 0.01 ± 0.00 g | TGI% Day 21 ([2]; Day 21, ASK-MET 3 mg/kg p.o. QD×(D0-D7) (G4), above 100 = regression by formula of b100): 197.93% | Complete tumor regression (%) [2, 6]: 12.5% and 12.5 (1/8) % | Complete tumor regression (%) [2, 7]: 75% and 75 (6/8) % | T/C% Day 21 [2, 8]: 9.27% | T/C% Day 21 [2, 9]: 0.28% | T/C (%) (tumor weight) [2, 8]: 9.18% | T/C (%) (tumor weight) [2, 9]: 0.39% | Weight ([3]; Day 0, ASK-MET 2 mg/kg p.o. QD×15 (G2)): 20.3 ± 1.0 g | Weight ([3]; Day 2, ASK-MET 2 mg/kg p.o. QD×15 (G2)): 20.3 ± 1.3 g | Weight ([3]; Day 5, ASK-MET 2 mg/kg p.o. QD×15 (G2)): 20.5 ± 1.0 g | Weight ([3]; Day 8, ASK-MET 2 mg/kg p.o. QD×15 (G2)): 20.8 ± 0.3 g | Weight ([3]; Day 12, ASK-MET 2 mg/kg p.o. QD×15 (G2)): 20.8 ± 0.4 g | Weight ([3]; Day 15, ASK-MET 2 mg/kg p.o. QD×15 (G2)): 20.5 ± 0.4 g
